Assay results: PubChem BioAssay AID1918998 (Molecular Pharmacology Branch, DTP, NCI, 2023)
pIC50: −log10 of the molar value.

Test system: 521955-158-R2-J5-PDC complex spheroid growth
Assay: Anticancer human tumor 521955-158-R2-J5-PDC patient-derived pancreatic carcinoma cell line growth inhibition [AhR]
Settings: for pIC50: curve of first compound; for viability, T/C: stronger effect = lower value
In short: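 Agents were dosed in half-log steps down from roughly clinical Cmax, or from 10 microM where Cmax was unknown, alone and with AhR antagonists. Read-out: percent test/control growth of tumor spheroids containing HUVEC and MSC stromal cells.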

[1] = second compound 0.1 µM, first compound 0.0316 µM
[2] = second compound 0.1 µM, first compound 0.1 µM
[3] = second compound 0.1 µM, first compound 0.316 µM
[4] = second compound 0.1 µM, first compound 1 µM
[5] = second compound 0.316 µM, first compound 0.0316 µM
[6] = second compound 0.316 µM, first compound 0.1 µM
[7] = second compound 0.316 µM, first compound 0.316 µM
[8] = second compound 0.316 µM, first compound 1 µM
[9] = second compound 1 µM, first compound 0.0316 µM
[10] = second compound 1 µM, first compound 0.1 µM
[11] = second compound 1 µM, first compound 0.316 µM
[12] = second compound 1 µM, first compound 1 µM
[13] = second compound 3.16 µM, first compound 0.0316 µM
[14] = second compound 3.16 µM, first compound 0.1 µM
[15] = second compound 3.16 µM, first compound 0.316 µM
[16] = second compound 3.16 µM, first compound 1 µM
[17] = second compound 10 µM, first compound 0.0316 µM
[18] = second compound 10 µM, first compound 0.1 µM
[19] = second compound 10 µM, first compound 0.316 µM
[20] = second compound 10 µM, first compound 1 µM
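Throughout, for viability, T/C: spheroids mix tumor cells with HUVEC endothelium and human MSC stroma; luminescence taken as viability surrogate after a week of drug exposure.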

## CC1COCCN1c1cc(-c2ccnn2C)c2ccnc(-c3ccn[nH]3)c2n1 (stereo not given) + Cc1cncc(-c2nc(NCCc3c[nH]c4ccccc34)c3ncn(C(C)C)c3n2)c1
Second compound 0.1 µM
  pIC50: 6.94
Second compound 0.316 µM
  pIC50: 6.87
Second compound 1 µM
  pIC50: 7.06
Second compound 3.16 µM
  pIC50: 6.88
Second compound 10 µM
  pIC50: 7.05
Second compound 0.1 µM, first compound 0.00316 µM
  viability, T/C: 112%
Second compound 0.1 µM, first compound 0.01 µM
  viability, T/C: 109%
[1]
  viability, T/C: 106%
[2]
  viability, T/C: 55.6%
[3]
  viability, T/C: 12.8%
[4]
  viability, T/C: 16.2%
Second compound 0.316 µM, first compound 0.00316 µM
  viability, T/C: 113%
Second compound 0.316 µM, first compound 0.01 µM
  viability, T/C: 130%
[5]
  viability, T/C: 117%
[6]
  viability, T/C: 63.3%
[7]
  viability, T/C: 12.4%
[8]
  viability, T/C: 12.7%
Second compound 1 µM, first compound 0.00316 µM
  viability, T/C: 94.7%
Second compound 1 µM, first compound 0.01 µM
  viability, T/C: 123%
[9]
  viability, T/C: 121%
[10]
  viability, T/C: 41.6%
[11]
  viability, T/C: 15.7%
[12]
  viability, T/C: 13.1%
Second compound 3.16 µM, first compound 0.00316 µM
  viability, T/C: 176%
Second compound 3.16 µM, first compound 0.01 µM
  viability, T/C: 167%
[13]
  viability, T/C: 145%
[14]
  viability, T/C: 61.1%
[15]
  viability, T/C: 13.6%
[16]
  viability, T/C: 19.1%
Second compound 10 µM, first compound 0.00316 µM
  viability, T/C: 127%
Second compound 10 µM, first compound 0.01 µM
  viability, T/C: 134%
[17]
  viability, T/C: 105%
[18]
  viability, T/C: 45.2%
[19]
  viability, T/C: 8.85%
[20]
  viability, T/C: 12.9%

## CC1COCCN1c1cc(C2(S(C)(=N)=O)CC2)nc(-c2ccnc3[nH]ccc23)n1 (stereo not given) + Cc1cncc(-c2nc(NCCc3c[nH]c4ccccc34)c3ncn(C(C)C)c3n2)c1
Second compound 0.1 µM
  pIC50: 5.61
Second compound 0.316 µM
  pIC50: 5.59
Second compound 1 µM
  pIC50: 5.59
Second compound 3.16 µM
  pIC50: 5.58
Second compound 10 µM
  pIC50: 5.61
[1]
  viability, T/C: 115%
[2]
  viability, T/C: 108%
[3]
  viability, T/C: 114%
[4]
  viability, T/C: 107%
Second compound 0.1 µM, first compound 3.16 µM
  viability, T/C: 33.8%
Second compound 0.1 µM, first compound 10 µM
  viability, T/C: 15.5%
[5]
  viability, T/C: 125%
[6]
  viability, T/C: 131%
[7]
  viability, T/C: 105%
[8]
  viability, T/C: 118%
Second compound 0.316 µM, first compound 3.16 µM
  viability, T/C: 35.1%
Second compound 0.316 µM, first compound 10 µM
  viability, T/C: 14.4%
[9]
  viability, T/C: 140%
[10]
  viability, T/C: 138%
[11]
  viability, T/C: 131%
[12]
  viability, T/C: 128%
Second compound 1 µM, first compound 3.16 µM
  viability, T/C: 33.5%
Second compound 1 µM, first compound 10 µM
  viability, T/C: 15.5%
[13]
  viability, T/C: 139%
[14]
  viability, T/C: 142%
[15]
  viability, T/C: 154%
[16]
  viability, T/C: 128%
Second compound 3.16 µM, first compound 3.16 µM
  viability, T/C: 35.7%
Second compound 3.16 µM, first compound 10 µM
  viability, T/C: 14.5%
[17]
  viability, T/C: 130%
[18]
  viability, T/C: 132%
[19]
  viability, T/C: 139%
[20]
  viability, T/C: 111%
Second compound 10 µM, first compound 3.16 µM
  viability, T/C: 33.9%
Second compound 10 µM, first compound 10 µM
  viability, T/C: 14.3%
